Results on two molecules are retold here after ChEMBL document CHEMBL5647690, “Inhibition of demethylases by GSK-J1/J4” (Nature, 2014).

The target of experiment [1] is T1, Lysine-specific demethylase 4C (Homo sapiens, UniProt Q9H3R0).
T1 sequence (Q9H3R0 whole entry): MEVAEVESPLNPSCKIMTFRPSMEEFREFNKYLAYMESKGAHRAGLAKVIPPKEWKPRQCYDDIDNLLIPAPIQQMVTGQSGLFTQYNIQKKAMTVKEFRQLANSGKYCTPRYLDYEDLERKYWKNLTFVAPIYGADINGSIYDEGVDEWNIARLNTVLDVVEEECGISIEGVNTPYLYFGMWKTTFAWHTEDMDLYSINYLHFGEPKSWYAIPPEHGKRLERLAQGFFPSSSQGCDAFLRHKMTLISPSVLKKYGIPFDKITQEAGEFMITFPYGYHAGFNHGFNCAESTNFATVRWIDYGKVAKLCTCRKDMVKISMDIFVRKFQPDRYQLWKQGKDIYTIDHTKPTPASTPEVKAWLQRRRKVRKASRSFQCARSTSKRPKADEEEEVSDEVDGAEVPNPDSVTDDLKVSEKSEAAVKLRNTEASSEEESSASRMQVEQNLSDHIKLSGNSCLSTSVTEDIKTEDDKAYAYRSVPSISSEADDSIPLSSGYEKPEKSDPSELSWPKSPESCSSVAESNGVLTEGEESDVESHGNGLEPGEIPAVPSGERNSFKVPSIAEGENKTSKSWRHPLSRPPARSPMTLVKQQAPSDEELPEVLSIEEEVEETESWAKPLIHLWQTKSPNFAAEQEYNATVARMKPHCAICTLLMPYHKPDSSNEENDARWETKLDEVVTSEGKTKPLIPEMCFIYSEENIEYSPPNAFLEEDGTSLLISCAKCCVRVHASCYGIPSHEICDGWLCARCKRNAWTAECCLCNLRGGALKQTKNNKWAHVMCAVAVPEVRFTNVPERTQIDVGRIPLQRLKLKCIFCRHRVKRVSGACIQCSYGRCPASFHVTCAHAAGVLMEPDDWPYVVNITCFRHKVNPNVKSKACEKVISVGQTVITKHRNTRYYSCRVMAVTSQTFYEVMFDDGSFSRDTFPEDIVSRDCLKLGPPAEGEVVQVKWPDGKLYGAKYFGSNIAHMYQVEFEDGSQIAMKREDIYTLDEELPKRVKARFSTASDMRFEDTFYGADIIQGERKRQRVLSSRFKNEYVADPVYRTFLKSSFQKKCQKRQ
Kind of experiment: Inhibition of epitope-tagged full length KDM4C (unknown origin) transfected in human U2OS cells using H3K9me3 peptide as substrate. The class given is cell-based.

Experiment [2] concerns the target Lysine-specific demethylase 5C (Homo sapiens, UniProt P41229). Kind of experiment: Inhibition of KDM5C (2 to 1560 residues)(unknown origin) by Alphalisa assay. A general note: In Alpha technology, singlet oxygen from a donor bead excites a nearby acceptor bead.
Experiment [3] concerns the target T2, Lysine-specific demethylase 2B (Homo sapiens, UniProt Q8NHM5).
T2 sequence (Q8NHM5 whole entry): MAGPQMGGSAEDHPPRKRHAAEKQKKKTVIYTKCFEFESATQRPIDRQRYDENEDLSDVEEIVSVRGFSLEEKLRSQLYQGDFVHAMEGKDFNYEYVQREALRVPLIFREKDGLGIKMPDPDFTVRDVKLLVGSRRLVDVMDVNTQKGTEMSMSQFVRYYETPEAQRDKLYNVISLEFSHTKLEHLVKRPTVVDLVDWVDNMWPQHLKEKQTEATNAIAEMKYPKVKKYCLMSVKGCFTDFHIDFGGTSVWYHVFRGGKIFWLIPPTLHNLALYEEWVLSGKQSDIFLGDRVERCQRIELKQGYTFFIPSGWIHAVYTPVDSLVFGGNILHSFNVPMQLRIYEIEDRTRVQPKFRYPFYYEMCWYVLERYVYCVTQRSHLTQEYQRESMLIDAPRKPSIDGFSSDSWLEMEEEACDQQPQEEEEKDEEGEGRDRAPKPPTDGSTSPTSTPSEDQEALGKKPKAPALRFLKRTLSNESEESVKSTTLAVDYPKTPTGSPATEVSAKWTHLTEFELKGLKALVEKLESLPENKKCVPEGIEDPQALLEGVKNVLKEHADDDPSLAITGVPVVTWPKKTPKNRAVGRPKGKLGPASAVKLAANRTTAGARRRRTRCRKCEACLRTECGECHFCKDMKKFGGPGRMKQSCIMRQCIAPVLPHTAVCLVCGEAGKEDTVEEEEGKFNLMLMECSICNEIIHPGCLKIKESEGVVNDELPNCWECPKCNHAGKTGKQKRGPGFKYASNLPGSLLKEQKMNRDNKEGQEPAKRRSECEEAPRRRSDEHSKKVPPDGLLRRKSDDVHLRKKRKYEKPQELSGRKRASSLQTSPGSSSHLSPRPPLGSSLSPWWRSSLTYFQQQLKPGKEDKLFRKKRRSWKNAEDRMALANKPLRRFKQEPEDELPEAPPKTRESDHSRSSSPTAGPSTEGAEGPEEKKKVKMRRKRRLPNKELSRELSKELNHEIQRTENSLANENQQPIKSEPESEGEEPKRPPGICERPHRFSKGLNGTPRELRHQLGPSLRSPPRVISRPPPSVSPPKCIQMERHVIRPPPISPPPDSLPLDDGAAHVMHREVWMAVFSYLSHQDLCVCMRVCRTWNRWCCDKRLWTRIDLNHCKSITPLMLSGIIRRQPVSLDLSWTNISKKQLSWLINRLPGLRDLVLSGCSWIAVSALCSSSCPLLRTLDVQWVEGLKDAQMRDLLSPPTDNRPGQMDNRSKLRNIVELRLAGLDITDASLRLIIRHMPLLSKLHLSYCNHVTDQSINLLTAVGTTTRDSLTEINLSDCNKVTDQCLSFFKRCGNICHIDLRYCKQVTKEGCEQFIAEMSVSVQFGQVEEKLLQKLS
Kind of experiment: Inhibition of KDM2B (1 to 650 residues)(unknown origin) by Alphalisa assay.

Experiment [4] deals with T1, Lysine-specific demethylase 4C. Kind of experiment: Inhibition of KDM4C (1 to 349 residues)(unknown origin) by Alphalisa assay.
In experiment [5] the test system is Macrophage. Kind of experiment: Antiinflammatory activity against human primary macrophages assessed as inhibition of LPS-activated TNF-alpha production incubated for 6 hrs by ELISA. The class given is functional, cell-based. Background: In an ELISA, binding on a coated surface is turned into a signal by an enzyme label.

Sequence of Lysine-specific demethylase 5C (P41229 whole entry, the tested form may be a part): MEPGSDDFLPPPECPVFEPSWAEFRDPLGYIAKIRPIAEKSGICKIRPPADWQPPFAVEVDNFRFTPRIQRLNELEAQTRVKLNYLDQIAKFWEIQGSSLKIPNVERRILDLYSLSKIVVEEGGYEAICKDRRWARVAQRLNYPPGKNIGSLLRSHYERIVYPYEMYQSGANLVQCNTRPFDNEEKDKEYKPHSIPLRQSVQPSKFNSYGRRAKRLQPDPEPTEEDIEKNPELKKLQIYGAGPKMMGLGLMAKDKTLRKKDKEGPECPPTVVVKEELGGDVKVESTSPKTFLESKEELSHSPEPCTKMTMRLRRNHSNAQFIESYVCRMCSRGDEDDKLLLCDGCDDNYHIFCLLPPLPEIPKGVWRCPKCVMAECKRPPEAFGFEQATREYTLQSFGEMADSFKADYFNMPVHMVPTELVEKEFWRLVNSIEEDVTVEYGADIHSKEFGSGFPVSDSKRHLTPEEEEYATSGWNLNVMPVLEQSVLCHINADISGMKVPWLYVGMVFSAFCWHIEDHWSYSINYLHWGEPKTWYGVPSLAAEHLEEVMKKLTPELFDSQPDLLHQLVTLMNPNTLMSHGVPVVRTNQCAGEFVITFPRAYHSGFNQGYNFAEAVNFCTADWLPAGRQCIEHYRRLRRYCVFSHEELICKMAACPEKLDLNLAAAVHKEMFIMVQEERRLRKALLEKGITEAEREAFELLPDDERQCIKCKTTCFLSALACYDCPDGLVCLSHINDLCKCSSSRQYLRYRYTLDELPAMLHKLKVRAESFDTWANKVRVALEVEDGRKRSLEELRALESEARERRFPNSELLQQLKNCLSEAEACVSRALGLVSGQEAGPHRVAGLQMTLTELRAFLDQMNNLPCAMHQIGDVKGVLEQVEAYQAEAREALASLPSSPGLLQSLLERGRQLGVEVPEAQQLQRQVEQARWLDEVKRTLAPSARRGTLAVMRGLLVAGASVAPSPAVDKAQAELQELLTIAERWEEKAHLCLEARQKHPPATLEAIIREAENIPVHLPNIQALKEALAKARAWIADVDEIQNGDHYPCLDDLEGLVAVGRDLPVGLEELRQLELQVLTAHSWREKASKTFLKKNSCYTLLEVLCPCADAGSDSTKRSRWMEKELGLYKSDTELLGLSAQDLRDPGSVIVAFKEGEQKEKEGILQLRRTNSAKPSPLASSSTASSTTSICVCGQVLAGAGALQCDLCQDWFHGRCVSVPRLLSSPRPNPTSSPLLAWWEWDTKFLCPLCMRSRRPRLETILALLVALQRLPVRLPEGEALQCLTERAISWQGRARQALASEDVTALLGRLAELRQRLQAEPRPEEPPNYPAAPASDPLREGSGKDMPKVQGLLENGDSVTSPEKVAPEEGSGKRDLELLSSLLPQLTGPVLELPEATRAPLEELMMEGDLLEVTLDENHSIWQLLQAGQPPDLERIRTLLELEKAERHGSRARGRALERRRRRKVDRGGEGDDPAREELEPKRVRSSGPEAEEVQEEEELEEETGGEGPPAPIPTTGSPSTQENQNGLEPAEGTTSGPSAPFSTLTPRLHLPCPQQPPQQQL

By IC50 is commonly meant the midpoint of a concentration-inhibition curve. With `CCOC(=O)CCNc1cc(N2CCc3ccccc3CC2)nc(-c2ccccn2)n1`, the half-maximal inhibitory concentration (IC50) in experiment [1] turned out to be 7.3 µM; in experiment [2], 15 µM; in experiment [3], 2.1 µM; in experiment [4] it was 5.5 µM; in experiment [5] it was 9 µM.
Turning to `O=C(O)CCNc1cc(N2CCc3ccccc3CC2)nc(-c2ccccn2)n1`, the concentration for half-maximal inhibition (IC50) in experiment [2] stood at 0.55 µM; in experiment [3] it was 21 µM; in experiment [4], 34 µM.
